# According to patent US9573882B2, “Use of 4-[ethyl(dimethyl)ammonio]butanoate in the treatment of cardiovascular disease” (JSC GRINDEKS, priority 2009, dated 2017):
# Tests used:
# [1] = test system: isolated rat heart infarction model; assay: Isolated rat heart infarction study after daily p.o. treatment; format: in vivo, Wistar rats; settings: for Infarct size, % of control: isolated rat heart, 60 min occlusion, 150 min reperfusion, mean ± s.e.m. of 9-10 animals; for decrease of infarct size: versus control
# Description: Fifty male, 10 weeks old Wistar rats weighing 200-250 g were housed under standard conditions (21-23° C., 12 h light-dark cycle) with unlimited access to food (R3 diet, Lactamin AB, Sweden) and water.
# Rats were adapted to local conditions for two weeks before the start of treatment. Meldonium dihydrate at a dose of 5 mg/kg or 100 mg/kg, gamma-butyrobetaine at a dose of 5 mg/kg and EG at doses of 20 mg/kg were administered p.o. daily for 8 weeks. Control rats received water.
# Isolated Rat Heart Infarction Study The isolated rat heart experiment was performed essentially as described earlier (Liepinsh et al., J. Cardiovasc. Pharmacol. 2006; 48(6):314-9). Twenty-four hours after the last drug administration hearts were excised and retrogradely perfused via the aorta at a constant pressure with oxygenated Krebs-Henseleit buffer at 37° C. The heart rate, left ventricle end-diastolic pressure and left ventricle developed pressure were continuously recorded. Coronary flow was measured using an ultrasound flow detector (HSE) and the PowerLab 8/30 system from ADInstruments. The hearts were perfused for 20 min to stabilize the hemodynamic functions and then occlusion was performed for 60 min by constricting threads through a plastic tube. Successful occlusion was confirmed by a coronary flow decrease of about 40 percent. Reperfusion was achieved by releasing the threads. At the end of the 150-min reperfusion period, the risk zone was delineated with 0.1% methylene blue. The hearts were then sectioned transversely from the apex to the base in five slices 2 mm in thickness and incubated in 1% triphenyltetrazolium chloride in phosphate buffer (pH 7.4, 37° C.) for 10 min to stain viable tissue red and necrotic tissue white. Computerized planemetric analysis of Sony A900 photographs was performed using Image-Pro Plus 6.3 software to determine the area at risk and area of necrosis expressed as a % of the left ventricle. The obtained values were then used to calculate the infarct size (IS) as a % of risk area according to the formula: Infarct Size=Area of Necrosis/Area at Risk×100%.
# The anti-infarction effect of examined substances was investigated in an isolated rat heart infarction model. During occlusion of left coronary artery, the coronary flow in all experimental groups was decreased for 40% (from 11 ml/min 30 to 7 ml/min). Moreover, the drop of developed left ventricular pressure for 50% was observed. […] In reperfusion stage, coronary flow, developed left ventricular pressure, ±dp/dt values were recovered till about 80% of control level. There were no significant differences between control and treatment groups.
# Effects of Meldonium dihydrate (5 mg/kg un 100 mg/kg), gamma-butyrobetaine (5 mg/kg) and 4-[ethyl(dimethyl)ammonio]butanoate (EG) (5 mg/kg) after […] of treatment on infarct size in the isolated rat heart infarction experiment are presented in Table 1.
# [2] = s.c.; cited from earlier work
SMILES,"Infarct size, % of control ([1]; 5 mg/kg p.o. daily)","Infarct size, % of control ([1]; 100 mg/kg p.o. daily)",decrease of infarct size ([1]; 100 mg/kg) [%],decrease of infarct size ([1]; dose of 5 mg/kg) [%],therapeutical effect on infarct size ([1]; dose of 5 mg/kg),LD50 [2] [mg/kg]
"C[N+](C)(C)NCCC(=O)[O-] [Meldonium dihydrate, 3-(2,2,2-Trimethylhydrazinium)propionate dihydrate]",95 ± 9 % of control,76 ± 10 % of control,24,5,,
"CC[N+](C)(C)CCCC(=O)[O-] [EG, 4-[ethyl(dimethyl)ammonio]butanoate]",59 ± 6 % of control,,,41,,
C[N+](C)(C)CCCC(=O)[O-] [Gamma-butyrobetaine],90 ± 5 % of control,,,,no therapeutical effect,> 7000
